Measurements from patent publication US20030198661A1, “Antioxidant compositions and methods for companion animals” (MARS INCORPORATED, priority 2000, published 2003).

Columns and labels:
[1] = dog, in vivo
[2] = Plasma α-tocopherol response to supplementation in healthy dogs (Example 10); format: in vivo
Description: Vitamin E is the collective name for 8 naturally occurring molecules, 4 tocopherols and 4 tocotrienols. The biological activity of the various forms roughly correlates with their antioxidant activities with the order of relative peroxyl scavenging reactivities of α>β>γ>δ-tocopherol. […] The minimum requirement for vitamin E in adult dogs has been established as 2.5 IU α-tocopherol/400 kcal diet (Nutrient Requirements of Dogs (1985) National Research Council (U.S.) National Academy Press Washington D.C. ISBN:0-309-03496-5). Prepared petfoods typically contain up to 10 times this amount but across the normal ranges of vitamin E in petfoods, plasma concentrations tend to be constant. In a study to evaluate the impact of supplementary vitamin E on the plasma response, 6 adult dogs, maintained on a nutritionally complete (see diet reference section) canned dog food (vitamin E content 8.2 mg/400 kcal (8.21U/400 kcal), were offered a supplement equivalent to 100 IU vitamin E/day for 6 weeks. A control group of 6 dogs was maintained under the same conditions but received no dietary supplement. Plasma α-tocopherol was monitored during, and for 4 weeks following, the supplementation period.

[3] = Plasma vitamin C in dogs after dietary vitamin C; format: in vivo
Method: Samples are prepared under subdued lighting at all times.
A preferred minimal dose of vitamin C to achieve an increase in plasma in cats is 20 mg/400 kcal. A preferred minimal dose of vitamin C tested to achieve an increase in plasma in dogs was 27 mg/400 kcal.

[4] = system: rabies; format: in vivo; details: healthy adult cats; once daily oral supplement at Table 13 levels
[5] = in vivo
[6] = cats; oral α-tocopherol acetate supplements

Cc1c(C)c2c(c(C)c1O)CC[C@@](C)(CCC[C@H](C)CCC[C@H](C)CCCC(C)C)O2 [α-tocopherol]
individual plasma α-tocopherol levels, median [1]: 21.1 mg/L
Plasma α-tocopherol ([2]; Test group (100 IU vitamin E/day for 6 weeks), Baseline): 15.9
Plasma α-tocopherol ([2]; Test group (100 IU vitamin E/day), Day 28): 32.6
Plasma α-tocopherol ([2]; Test group (100 IU vitamin E/day), Day 42): 35.4
Plasma α-tocopherol ([2]; Test group, Day 70 (day 28 post-supplementation)): 28.2 ± 6.87

O=C1O[C@H]([C@@H](O)CO)C(O)=C1O [Vitamin C, L-ascorbic acid]
minimal dose of vitamin C tested to achieve an increase in plasma [3]: 27 mg/400 kcal
anti-rabies antibody response to vaccination versus unsupplemented controls [4]: greater
plasma vitamin C levels versus baseline within 7 days [5]: significantly increased

CC1=C(/C=C/C(C)=C/C=C/C(C)=C/C=C/C=C(C)/C=C/C=C(C)/C=C/C2=C(C)CCCC2(C)C)C(C)(C)CCC1 [beta-carotene]
anti-rabies antibody response to vaccination versus unsupplemented controls [4]: greater

CC(C)=CCC/C(C)=C/C=C/C(C)=C/C=C/C(C)=C/C=C/C=C(C)/C=C/C=C(C)/C=C/C=C(\C)CCC=C(C)C [lycopene]
anti-rabies antibody response to vaccination versus unsupplemented controls [4]: particularly marked

CC(=O)Oc1c(C)c(C)c2c(c1C)CCC(C)(CCC[C@H](C)CCC[C@H](C)CCCC(C)C)O2 (stereo partly drawn) [Vitamin E, alpha-tocopherol acetate]
plasma vitamin E levels following oral supplementation [6]: significantly increased
anti-rabies antibody response to vaccination versus unsupplemented controls [4]: greater

NCCS(=O)(=O)O [taurine, aminoethylsulfonic acid]
anti-rabies antibody response to vaccination versus unsupplemented controls [4]: greater
